Read-outs that look alike come from different tables or passages of the source.
How the values were obtained:
[1] = target: Na+ channel (site 2), batrachotoxin-binding sites of VGSCs; details: cited from earlier work
[2] = test system: motor coordination of mice; assay: Rotarod test (acute neurotoxicity); details: i.p.
Description: Additionally, their possible acute neurotoxic effects were evaluated in the rotarod test.
Acute neurotoxicity of the compounds obtained after i.p. administration was tested in mice using the rotarod test according to the methodology described earlier [37].

[3] = test system: maximal electroshock-induced tonic-clonic seizures in mice; assay: Maximal electroshock-induced seizure (MES) test; assay type: in vivo; details: Mus musculus, ip, read-out: ED50 ± SEM, anticonvulsant activity (MES test)
Description: As the sodium channel ligands are recognized as antiepileptic agents and the affinity of 3 and 4 against VGSCs was still in the beneficial range, the investigated 1,2,4-triazole derivatives were examined for their antiepileptic potential using in the vivo model of tonic–clonic seizures in mice. The protective effect of compounds 3 and 4 against maximal electroshock-induced seizures (MES) was evaluated in a wide range of doses (producing 0% to 100% protection) that enabled us to calculate corresponding ED50 values.
Anticonvulsant activity of the investigated compounds was determined according to the same procedure as described in [11, 15, 18]. Adult albino mice weighing 20–25 g were used in the experiment. The animals were randomly divided into groups of 8 mice and kept in colony cages with free access to water and food. Test compounds were administered intraperitoneally, suspended in a 1% solution of Tween 80 in distilled water in a volume of 5 mL/kg. Electroconvulsions were produced with alternating current (0.2 s stimulus duration; 500 V, 50 Hz, 25 mA constant current) delivered through ear clip electrodes by a type 221 rodent shock generator (Hugo Sachs Elektronik, Freiburg, Germany). Absence of tonic extension of the hind limb was assumed as the criterion of anticonvulsant activity. ED50 values were calculated using Litchfield and Wilcoxon’s log-probit method.

[4] = target: Na+ channel (site 2), batrachotoxin-binding sites of VGSCs; details: [3H]batrachotoxin displacement, rat cerebral cortex membranes, 8 concentrations 0.1-300 µM; read-out: Na+ Channel (Site 2) Affinity IC50 ± SEM
[5] = test system: maximal electroshock-induced tonic-clonic seizures in mice; design: method as in PMID 30594731; details: cited from earlier work

Row | SMILES | PI (TD50/ED50) ([2]; pretreatment time 15 min) | PI (TD50/ED50) ([2]; pretreatment time 30 min) | PI (TD50/ED50) ([2]; pretreatment time 60 min) | PI (TD50/ED50) ([2]; pretreatment time 120 min) | ED50 ([3]; pretreatment time 15 min) [mg/kg] | ED50 ([3]; pretreatment time 30 min) [mg/kg] | ED50 ([3]; pretreatment time 60 min) [mg/kg] | ED50 ([3]; pretreatment time 120 min) [mg/kg] | melting point [°C] | IC50 [4] [µM] | further results
1 | CCCCCCn1c(Cc2cccc(Cl)c2)n[nH]c1=S [Compound 2, 5-(3-chlorobenzyl)-4-hexyl-1,2,4-triazole-3-thione] | – | – | – | – | – | – | – | – | – | – | IC50 ([1]; read-out: IC50 (blocked the VGSCs)): 6.17 µM
2 | CCCCn1c(CCc2cccc(Cl)c2)n[nH]c1=S [Compound 3, 4-Butyl-5-[2-(3-chlorophenyl)ethyl]-2,4-dihydro-3H-1,2,4-triazole-3-thione] | 2.4 | 3.4 | 2.3 | 1.7 | 139 ± 31.4 | 96.6 ± 14.8 | 148 ± 17.1 | 195 ± 18.9 | 102 to 104 | 11.9 ± 0.4 | –
3 | CCCCCCn1c(CCc2cccc(Cl)c2)n[nH]c1=S [Compound 4, 5-[2-(3-Chlorophenyl)ethyl]-4-hexyl-2,4-dihydro-3H-1,2,4-triazole-3-thione] | 6.2 | 5.3 | 3.2 | 1.9 | 115 ± 7.6 | 129 ± 21.1 | 215 ± 21.1 | 255 ± 22.5 | 84 to 86 | 18.9 ± 0.3 | median toxic doses (TD50) in the rotarod test ([2]; pretreatment time not stated, highest value of the series): ≤ 710.5 mg/kg
4 | CCCC(CCC)C(=O)O [Valproate] | – | – | – | – | – | – | – | – | – | – | ED50 ± SEM, anticonvulsant activity (MES test) ([5]; pretreatment time 15 min): 189.0 ± 17.3 mg/kg; ED50 ± SEM, anticonvulsant activity (MES test) ([5]; pretreatment time 30 min): 216.9 ± 9.4 mg/kg; ED50 ± SEM, anticonvulsant activity (MES test) ([5]; pretreatment time 60 min): 218.4 ± 18.9 mg/kg; ED50 ± SEM, anticonvulsant activity (MES test) ([5]; pretreatment time 120 min): 246.6 ± 21.4 mg/kg
5 | COc1ccc(C(=O)O[C@H]2CC[C@@]3(C)[C@@H]4CC[C@H]5[C@]6(O)C[C@H](O)[C@@]7(O)[C@@H](CN8C[C@@H](C)CC[C@H]8[C@@]7(C)O)[C@]6(O)C[C@@]53O[C@]24O)cc1OC [Veratridine, reference compound] | – | – | – | – | – | – | – | – | – | 17.8 ± 0.9 | –
6 | CCCCn1c(Cc2cccc(Cl)c2)n[nH]c1=S [Compound 1] | – | – | – | – | – | – | – | – | – | – | IC50 ([1]; Figure 1, methylene-linker 3-chlorophenyl analogs, read-out: IC50 (VGSC affinity)): 15.8 µM

— article PMC10343781, “Effect of Linker Elongation on the VGSC Affinity and Anticonvulsant Activity among 4-Alkyl-5-aryl-1,2,4-triazole-3-thione Derivatives” (Molecules, 2023)
